{
  "source": "paper PMC12314110",
  "about": "“Evaluation of Potential Effects of CYP3A Inhibition and CYP3A Induction on the Pharmacokinetics of Fruquintinib in Healthy Subjects” (Clinical Pharmacology in Drug Development, 2025)",
  "key": {"[1]": {"assay": "Part A: PK of single-dose fruquintinib alone and with itraconazole (CYP3A inhibition)", "type": "in vivo, human", "settings": "for AUC(0-inf) / AUC(0-t) / Tmax / Cmax / half-life / t1/2: fruquintinib in plasma; for AUC(0-inf) / AUC(0-t) / Tmax / Cmax / half-life / t1/2 / CL/F (apparent oral clearance): Part A, n = 14; for AUC(0-inf) / AUC(0-t) / Cmax / half-life / t1/2 / CL/F (apparent oral clearance): arithmetic mean (SD); for Tmax: median (minimum‐maximum); for half-life: plasma; for CL/F (apparent oral clearance): fruquintinib", "text": "(§1) This was a single‐center, open‐label, 2‐part (Part A and Part B), 2‐period, fixed‐sequence study conducted in healthy male and female subjects. Parts A and B evaluated the effect of the CYP3A inhibitor itraconazole and the CYP3A inducer rifampin on the PK profile of fruquintinib, respectively. Each part consisted of a screening phase, a treatment phase (Period 1 and Period 2), and an end‐of‐study (EOS) phase. Screening occurred within 21 days before the first study drug administration. There was at least a 14‐day washout of fruquintinib between treatment periods. PK samples were collected before dosing and over 168 hours following the fruquintinib dose in Part A (with itraconazole) and Part B (with rifampin). Part A and Part B were enrolled independently.\nIn Part A, subjects were administered fruquintinib alone in Treatment Period 1 and in combination with itraconazole in Treatment Period 2. Study Day 1 was considered the start of Treatment Period 1, and Study Day 15 was considered the start of Treatment Period 2. On Study Day 1, subjects received a single dose of fruquintinib 5 mg by mouth under fasted conditions (subjects fasted for at least 10 hours before fruquintinib dosing and 4 hours after), and on Study Day 19 subjects received a second single dose of fruquintinib 5 mg by mouth under fasted conditions, alongside itraconazole. On Study Day 15, subjects began a regimen of itraconazole 200 mg by mouth twice a day, followed by once daily dosing on Study Days 16‐25. A dose of 200 mg was selected, with a loading dose as part of a 5‐day lead‐in (twice daily for 1 day, once daily for 4 days) to achieve appropriate inhibition of CYP3A before dosing with fruquintinib.[10] Once‐daily dosing of itraconazole for an additional 5 days throughout the fruquintinib PK sampling period was continued to maintain CYP3A inhibition.[11]\nAs itraconazole oral bioavailability is maximal when the capsules are taken immediately after a full meal,[12] it was administered under fed conditions except when coadministered with fruquintinib on Study Day 19. Itraconazole doses were administered 30 minutes after the start of breakfast on Study Days 15‐18 and Study Days 20‐25. On Study Day 19, subjects received both treatments under fasted conditions, and itraconazole was administered 1 hour before administration of a single dose of fruquintinib 5 mg by mouth. Subjects were discharged after completion of EOS procedures on Study Day 26 or at early withdrawal.\n(§2) Blood samples for determination of fruquintinib and metabolite M11 plasma concentrations were collected before dosing and at 0.5, 1, 1.5, 2, 3, 4, 6, 8, 12, 24, 36, 48, 72, 96, 120, 144, and 168 hours after fruquintinib dosing. Plasma samples were analyzed by LabCorp Bioanalytical (Indianapolis, IN) using a validated liquid chromatography with tandem mass spectrometry assay method with an analytical range of 1.00 ng/mL (lower limit of quantitation) to 750 ng/mL (upper limit of quantitation) for both fruquintinib and M11.[6] Interrun variability was 6.3% or less and 13.8% or less for fruquintinib and M11, respectively. Quality control samples at 4 concentrations (3, 30, 300, and 600 ng/mL) were assayed along with study samples, and the bias quality control sample concentrations deviated by ±2.0% and ±2.7% from the nominal concentrations for fruquintinib and M11, respectively.\nPK parameters were determined by noncompartmental analysis and included maximum plasma concentration (Cmax); time to reach Cmax (tmax); area under the plasma concentration‐time curve (AUC) from time 0 to the time of the last measurable concentration (AUC0‐t); AUC from time 0 to infinity (AUC0‐inf); half‐life (t1/2); and the metabolite‐to‐parent ratios for Cmax, AUC0‐t, and AUC0‐inf. Apparent oral clearance and volume of distribution were also estimated for fruquintinib. […]"}, "[2]": {"assay": "Part B: PK of single-dose fruquintinib alone and with rifampin (CYP3A induction)", "type": "in vivo, human", "settings": "for AUC(0-inf) / AUC(0-t) / Cmax / half-life / Tmax / t1/2: fruquintinib in plasma; for AUC(0-inf) / AUC(0-t) / Cmax / half-life / Tmax / t1/2 / CL/F (apparent oral clearance): Part B; for AUC(0-inf) / AUC(0-t) / Cmax / half-life / t1/2 / CL/F (apparent oral clearance): arithmetic mean (SD); for half-life / Tmax: plasma; for Tmax: median (minimum‐maximum), read-out: tmax; for CL/F (apparent oral clearance): fruquintinib", "text": "as §1\nIn Part B, subjects were administered fruquintinib alone in Treatment Period 1 and in combination with rifampin in Treatment Period 2. Study Day 1 was considered as the start of Treatment Period 1, and Study Day 8 was considered as the start of Treatment Period 2. On Study Day 1, a single dose of fruquintinib 5 mg by mouth was administered under fasted conditions, and on Study Day 15, a single dose of fruquintinib 5 mg was administered by mouth under fasted conditions alongside rifampin. Starting on Study Day 8, rifampin 600 mg was dosed by mouth once daily for 14 consecutive days, 7 days before fruquintinib dosing and 6 days after fruquintinib dosing, to ensure that induction was maintained throughout the PK sampling period. Subjects therefore received rifampin from Study Day 8 to Study Day 21. Absorption of rifampin is reduced by approximately 30% when the drug is ingested with food.[13] Therefore, rifampin was administered at least 1 hour before breakfast when given alone and under fasted conditions when administered with fruquintinib. Breakfast was given at least 1 hour after the rifampin doses on Study Days 8‐14 and Study Days 16‐21. On Study Day 15, subjects received both treatments under fasted conditions, and rifampin was administered 1hour before administration of a single dose of fruquintinib 5 mg by mouth. Subjects were discharged after completion of EOS procedures on Study Day 22 or at early withdrawal.\nas §2\nPK parameters were determined by noncompartmental analysis and included maximum plasma concentration (Cmax); time to reach Cmax (tmax); area under the plasma concentration‐time curve (AUC) from time 0 to the time of the last measurable concentration (AUC0‐t); AUC from time 0 to infinity (AUC0‐inf); half‐life (t1/2); and the metabolite‐to‐parent ratios for Cmax, AUC0‐t, and AUC0‐inf. Apparent oral clearance and volume of distribution were also estimated for fruquintinib.\nFor Part A, the effect of itraconazole based on the PK parameters of fruquintinib was evaluated using a linear mixed‐effect model with treatment (ie, fruquintinib with itraconazole [test] and fruquintinib alone [reference]) as fixed effects and subject as a random effect. A similar inferential analysis was performed for Part B, but fruquintinib with rifampin was the test group. […]"}, "[3]": {"settings": "both sexes, human, oral, fruquintinib 5 mg + itraconazole 200 mg"}, "[4]": {"settings": "both sexes, human, oral, fruquintinib alone 5 mg"}, "[5]": {"settings": "fruquintinib 5 mg + itraconazole 200 mg"}, "[6]": {"settings": "both sexes, human, oral, fruquintinib 5 mg + rifampin 600 mg, n = 13"}, "[7]": {"settings": "both sexes, human, oral, fruquintinib alone 5 mg, n = 13"}, "[8]": {"settings": "fruquintinib 5 mg + rifampin 600 mg, n = 13"}, "[9]": {"settings": "fruquintinib alone 5 mg, n = 13"}},
  "data": [
    {"smiles": "CNC(=O)c1c(C)oc2cc(Oc3ncnc4cc(OC)c(OC)cc34)ccc12", "note": "[Fruquintinib]", "values": [
      {"measurement": "AUC(0-inf)", "setting": "[1]; [3]", "value": 6460, "unit": "ng·h/mL"},
      {"measurement": "AUC(0-t)", "setting": "[1]; [3]", "value": 6040, "unit": "ng·h/mL"},
      {"measurement": "Tmax", "setting": "[1]; [3]", "value": 4, "unit": "h"},
      {"measurement": "AUC(0-inf)", "setting": "[1]; [4]", "value": 5960, "unit": "ng·h/mL"},
      {"measurement": "AUC(0-t)", "setting": "[1]; [4]", "value": 5730, "unit": "ng·h/mL"},
      {"measurement": "Tmax", "setting": "[1]; [4]", "value": 2, "unit": "h"},
      {"measurement": "Cmax", "setting": "[1]; both sexes, human, oral, fruquintinib alone, single 5 mg by mouth, fasted, read-out: Cmax", "value": 133, "unit": "ng/mL"},
      {"measurement": "half-life", "setting": "[1]; both sexes, human, oral, 5 mg, fruquintinib alone 5 mg", "value": "~34", "unit": "h"},
      {"measurement": "half-life", "setting": "[1]; [3]", "value": "~41", "unit": "h"},
      {"measurement": "increase of fruquintinib AUCs", "setting": "[1]; coadministration with itraconazole versus fruquintinib alone", "value": "approximately 10%"},
      {"measurement": "delay of median tmax of fruquintinib", "setting": "[1]; following coadministration of itraconazole", "value": 2, "unit": "h"},
      {"measurement": "Cmax", "setting": "[1]; [5]", "value": "122 (22.8) ng/mL"},
      {"measurement": "t1/2", "setting": "[1]; [5]", "value": "41.4 (5.96) hour"},
      {"measurement": "t1/2", "setting": "[1]; fruquintinib alone 5 mg", "value": "33.9 (6.96) hour"},
      {"measurement": "CL/F (apparent oral clearance)", "setting": "[1]; [5]", "value": "13.3 (2.59) mL/min"},
      {"measurement": "CL/F (apparent oral clearance)", "setting": "[1]; fruquintinib alone 5 mg", "value": "14.9 (4.14) mL/min"},
      {"measurement": "AUC(0-inf)", "setting": "[2]; [6]", "value": 2070, "unit": "ng·h/mL"},
      {"measurement": "AUC(0-t)", "setting": "[2]; [6]", "value": 2020, "unit": "ng·h/mL"},
      {"measurement": "Cmax", "setting": "[2]; both sexes, human, oral, fruquintinib 5 mg + rifampin 600 mg, n = 13, read-out: Cmax", "value": 108, "unit": "ng/mL"},
      {"measurement": "AUC(0-inf)", "setting": "[2]; [7]", "value": 5890, "unit": "ng·h/mL"},
      {"measurement": "AUC(0-t)", "setting": "[2]; [7]", "value": 5640, "unit": "ng·h/mL"},
      {"measurement": "half-life", "setting": "[2]; both sexes, human, oral, 5 mg, fruquintinib alone 5 mg, n = 13", "value": "~34", "unit": "h"},
      {"measurement": "Tmax", "setting": "[2]; both sexes, human, oral, 5 mg, fruquintinib alone 5 mg, n = 14", "value": 3.33, "unit": "h"},
      {"measurement": "half-life", "setting": "[2]; [6]", "value": "~14", "unit": "h"},
      {"measurement": "Tmax", "setting": "[2]; [6]", "value": 3, "unit": "h"},
      {"measurement": "reduction of fruquintinib AUCs (AUC0‐t and AUC0‐inf)", "setting": "[2]; coadministration with rifampin versus fruquintinib alone", "value": 65, "unit": "%"},
      {"measurement": "t1/2", "setting": "[2]; [8]", "value": "14.0 (3.06) hour"},
      {"measurement": "t1/2", "setting": "[2]; [9]", "value": "33.9 (7.76) hour"},
      {"measurement": "Cmax", "setting": "[2]; fruquintinib alone, single 5 mg by mouth, fasted, n = 14", "value": "123 (25.5) ng/mL"},
      {"measurement": "CL/F (apparent oral clearance)", "setting": "[2]; [8]", "value": "41.9 (7.46) mL/min"},
      {"measurement": "CL/F (apparent oral clearance)", "setting": "[2]; [9]", "value": "14.5 (2.22) mL/min"}
    ]}
  ]
}
